Test results published in patent US9434976B2, “Modification of sample preparation to differentiate live and dead bacteria by polymerase chain reaction assay” (priority 2013, dated 2016).
“Also recorded” adds a separate entry of the source. Read-outs that look alike come from different tables or passages of the source.

Legend:
Escherichia coli 0157:H7 = assay: Real time PCR of live, heat-killed or isopropyl alcohol-killed E. coli after treatment with a DNA-binding chemical; assay type: cell-based; details: for PCR amplification product from live versus killed E. coli: Gel Red 3x stock; for Blocking of amplification of DNA from dead bacteria: dead E. coli; for Penetration into E. coli and blocking of PCR amplification: recommended concentration
Method: (§1) Various amounts of Gel Red™ can be added to the isolated microbe. Originally the GelRed™ is available at 10,000× solution in water or 3× staining solution in H2O (working solution). The base for the concentration calculation refers to working solution or 3×. In FIGS. 2-4 various dilutions were reported (1:1, 1:10 and 1:100). “1:1” means where 1.0 μl of commercially available Gel Red™ at 3× is diluted in 1.0 μl diluent (such as water). “1:10” means where 1.0 μl of commercially available Gel Red™ at 3× is diluted in 10.0 μl diluent (such as water). “1:100” means where 1.0 μl of commercially available Gel Red™ at 3× is diluted in 100.0 μl diluent (such as water).
(§2) Bacterial species included in these experiments were E. coli, L. monocytogens, and S. Typhimurium. Fresh culture was suspended in a buffer and placed in three tubes (live bacteria, heat-killed and isopropanol-killed bacteria). The first tube contained live bacteria without treatment, and the second and the third tube were inactivated by heat and isopropanol, respectively. The DNA-intercalating chemicals used in this experiment were PMA, EMA and other DNA-binding chemicals, which were not previously reported. The experiments were performed to study the application of sample modification with DNA-binding chemicals to enable PCR to amplify samples only from viable bacteria. […] The bacterial sample was modified with PMA or combined with high voltage light exposure to assess the combined treatment effect.
A sample containing E. coli was tested. One sample included live E. coli. Another sample included heat killed E. coli and another sample contained isopropyl alcohol killed E. coli. In FIG. 2, Compound CE stands for Gel Red™. Real time PCR was run on the samples. […] The Gel Red™ was too highly concentrated that it penetrated all of E. coli even in the “live sample. […] The Gel Red™ was too weak to get into the intact cell membrane of the live E. coli.
In this reaction, the amplification was run using primers that targeted the per gene (which encodes perosamine synthetase).

Listeria monocytogenes = assay: Real time PCR of live, heat-killed or isopropyl alcohol-killed L. monocytogenes after treatment with a DNA-binding chemical; assay type: cell-based; details: for PCR product from live versus killed L. monocytogenes: Gel Red 3x stock; for Blocking of amplification of DNA from dead bacteria: dead L. monocytogens
Method: as §1, §2
A sample containing L. monocytogenes was tested. One sample included live L. monocytogenes. Another sample included heat killed L. monocytogenes and another sample contained isopropyl alcohol killed L. monocytogenes. In FIG. 3, Compound CE stands for Gel Red™. Real time PCR was run on the samples.
In this reaction, the amplification was run using primers that targeted the Hly 9125 gene (which encodes listeriolysin O protein).

Salmonella Typhimurium = assay: Real time PCR of live, heat-killed or isopropyl alcohol-killed Salmonella Typhimurium after treatment with a DNA-binding chemical; assay type: cell-based; details: for PCR product from live versus killed Salmonella Typhimurium: Gel Red 3x stock; for Blocking of amplification of DNA from dead bacteria: dead S. typhimurium
Method: as §1, §2
A sample containing Salmonella Typhimurium was tested. One sample included live Salmonella Typhimurium. Another sample included heat killed Salmonella Typhimurium and another sample contained isopropyl alcohol killed Salmonella Typhimurium. In FIG. 4, Compound CE stands for Gel Red™. Real time PCR was run on the samples.
In this reaction, the amplification was run using primers that targeted the ycdC gene (which encodes a putative transcriptional repressor protein).

[1] = cited from earlier work
[2] = cited from earlier work; remark: listed apart in the source
bacterial sample = assay: PMA sample modification combined with high voltage light exposure, PCR; assay type: cell-based
Excerpt: as §2

[3] = concentrations well above the working concentrations used in gel staining

## Nc1ccc2c(c1)c(-c1ccccc1)[n+](CCCCCC(=O)NCCCOCCOCCOCCCNC(=O)CCCCC[n+]1c(-c3ccccc3)c3cc(N)ccc3c3ccc(N)cc31)c1cc(N)ccc21.[I-].[I-] [Gel Red™, 5, 5′-(6, 22-dioxo-11, 14, 17-trioxa-7, 21-diazaheptacosane-1, 27-diyl)bis(3,8-diamino-6-phenylphenanthridin-5-ium) iodide]
Escherichia coli 0157:H7; dilution 1:1
  PCR amplification product from live versus killed E. coli: no PCR products even in the sample containing the live bacteria
Escherichia coli 0157:H7; dilution 1:10
  PCR amplification product from live versus killed E. coli: signal from live but not from killed samples
Escherichia coli 0157:H7; dilution 1:100
  PCR amplification product from live versus killed E. coli: amplification products in all samples, including the killed bacteria samples
Listeria monocytogenes; dilution 1:1
  PCR product from live versus killed L. monocytogenes: no PCR products
Listeria monocytogenes; dilution 1:10
  PCR product from live versus killed L. monocytogenes: signal from live but not from killed samples
Listeria monocytogenes; dilution 1:100
  PCR product from live versus killed L. monocytogenes: signal from live but not from killed samples
Salmonella Typhimurium; dilution 1:1
  PCR product from live versus killed Salmonella Typhimurium: no PCR products
Salmonella Typhimurium; dilution 1:10
  PCR product from live versus killed Salmonella Typhimurium: no PCR products
Salmonella Typhimurium; dilution 1:100
  PCR product from live versus killed Salmonella Typhimurium: signal from live but not from killed samples
[1]; Table 1
  Cytotoxicity (Description): noncytotoxic.
[1]; [3]
  Cytotoxicity: noncytotoxic
  Hazard: nonhazardous
  Mutagenicity: nonmutagenic
[2]; Table 1, normal light
  Stability under normal light: light (photostable).
[2]; Table 1
  Stability: stable
[2]; general statement
  Stability: extremely stable

## CC[N+](C)(CC)CCC[n+]1c(-c2ccccc2)c2cc(N=[N+]=[N-])ccc2c2ccc(N)cc21 [PMA, propidium monoazide]
Escherichia coli 0157:H7
  Blocking of amplification of DNA from dead bacteria: completely blocks the amplification of DNA from dead; also recorded: can block the amplification of DNA from dead bacteria
  Penetration into E. coli and blocking of PCR amplification: penetrates only live E. coli
Listeria monocytogenes
  Blocking of amplification of DNA from dead bacteria: completely blocks the amplification of DNA from dead; also recorded: can block the amplification of DNA from dead bacteria
Salmonella Typhimurium
  Blocking of amplification of DNA from dead bacteria: completely blocks the amplification of DNA from dead; also recorded: can block the amplification of DNA from dead bacteria
Bacterial sample
  Effect of PMA combined with light exposure compared with PMA only: not much different from using only PMA
[1]; Table 1
  Cytotoxicity (Description): substantially lower

## ethidium monoazide bromide [EMA]
Escherichia coli 0157:H7
  Blocking of amplification of DNA from dead bacteria: can block the amplification of DNA from dead bacteria
  Penetration into E. coli and blocking of PCR amplification: penetrates only live E. coli
Listeria monocytogenes
  Blocking of amplification of DNA from dead bacteria: can block the amplification of DNA from dead bacteria
Salmonella Typhimurium
  Blocking of amplification of DNA from dead bacteria: can block the amplification of DNA from dead bacteria
[1]; Table 1
  Harmfulness: Potentially harmful
[2]; Table 1
  Solubility: Soluble in DMF or EtOH.
